Measured values published in patent publication US11325940B2, “Certain chemical entities, compositions, and methods” (NeuPharma, Inc., priority 2012, dated 2022).
In brackets after ≈: the same amount, converted by molar mass. Like-named read-outs stand apart in the source and are kept apart here.

Tests used:
[1] = Equilibrium solubility in aqueous buffer (HPLC UV); assay type: physicochemical; conditions: thermodynamic from solid
Description: The equilibrium solubility of compounds was measured in aqueous buffer. Excess amount of solid compound was added into buffer solution and the sample was briefly sonicated and then shaken at rt for 24 h. The sample was filtered and the concentration was analyzed by HPLC UV. A standard solution at 0.2 mg/mL was prepared in methanol or acetonitrile for each compound and used as an external standard for quantification. The scale utilized in Tables 2 is as follows: +++ greater than 1 mg/mL; ++ between 1 and 0.1 mg/mL; and + less than 0.1 mg/mL.

A549 cells = assay: Inhibition of cancer cell growth, MTT assay; assay type: cell-based; conditions: Homo sapiens; A549 cells, 72 h compound exposure, MTT; read-out: IC50
Description: Inhibition of cell growth by compounds was measured using MTT assay (Mosmann, T., Journal of Immunological Methods, 1983, 65, 55-63). Tumor cell lines were purchased from ATCC (American Type Culture Collection, Manassas, Va.). All cell lines were maintained in RPMI 1640 (Hyclone) supplemented with 10% fetal bovine serum (FBS, Hyclone), glutamine (2 mM, Hyclone), and antibiotics (penicillin 100 U/mL and streptomycin 50 μg/mL) at 37° C. in a humidified atmosphere of 5% CO2 in air. Taxol (as a positive control, Sigma) and compounds were dissolved in DMSO (Sigma), and the final concentration of DMSO in the medium was 1%. Tumor cells were plated in 96-well plates at densities of about 4000 cells/well of a 96-well plate and allowed to adhere/grow for 24 h. They were then treated with various concentrations of drug for 72 h. 3-(4,5-Dimethylthiazol-2-yl)-2,5-diphenyltetrazolium bromide (MTT, Sigma) was used to determine the number of viable cells at the time of compound addition and the number of cells remaining after 72 h compound exposure. The number of cells remaining after 72 h was compared to the number of viable cells at the time of compound addition by measuring the absorbance at 570 nm, allowing for the calculation of growth inhibition.
All concentrations of compounds were tested in triplicate and controls were averaged over 4 wells. IC50 was calculated by plotting the concentration of compound vs the percentage of inhibition in treated wells using GraphPad Prism 5. […] The scale utilized in Table 3 is as follows: ++++ less than 20 nM; +++ between 20 nM and 100 nM; ++ between 100 nM and 1000 nM; and + greater than 1000 nM.

[2] = aqueous buffer, equilibrium solubility, NaOAc/AcOH buffer (100 mM, pH 5.0), rt, 24 h, read-out: Solubility

SMILES | solubility at 24 h [1, 2] [µg/mL] | IC50 (A549 cells) [nM] | solubility at 24 h ([1]; pH 5, aqueous buffer) [µg/mL]
C[C@]12CC[C@H](NC(=O)N3CCOCC3)C[C@H]1CC[C@@H]1[C@@H]2CC[C@]2(C)[C@@H](c3ccc(=O)oc3)CC[C@]12O [Compound C02, N-((3S,5R,8R,9S,10S,13R,14S,17R)-14-hydroxy-10,13-dimethyl-17-(2-oxo-2H-pyran-5-yl)hexadecahydro-1H-cyclopenta[a]phenanthren-3-yl)morpholine-4-carboxamide] | < 100 | < 20 | 
C[C@]12CC[C@H](NC(=O)N3CCNCC3)C[C@H]1CC[C@@H]1[C@@H]2CC[C@]2(C)[C@@H](c3ccc(=O)oc3)CC[C@]12O [Compound C04, N-((3S,5R,8R,9S,10S,13R,14S,17R)-14-hydroxy-10,13-dimethyl-17-(2-oxo-2H-pyran-5-yl)hexadecahydro-1H-cyclopenta[a]phenanthren-3-yl)piperazine-1-carboxamide] | > 1000 | < 20 | 
C[C@]12CC[C@H](NC(=O)NCCN)C[C@H]1CC[C@@H]1[C@@H]2CC[C@]2(C)[C@@H](c3ccc(=O)oc3)CC[C@]12O [Compound C10, 1-(2-aminoethyl)-3-((3S,5R,8R,9S,10S,13R,14S,17R)-14-hydroxy-10,13-dimethyl-17-(2-oxo-2H-pyran-5-yl)hexadecahydro-1H-cyclopenta[a]phenanthren-3-yl)urea] | > 1000 | < 20 | 
C[C@]12CC[C@H](NC(=O)CN)C[C@H]1CC[C@@H]1[C@@H]2CC[C@]2(C)[C@@H](c3ccc(=O)oc3)CC[C@]12O [Compound C12, 2-amino-N-((3S,5R,8R,9S,10S,13R,14S,17R)-14-hydroxy-10,13-dimethyl-17-(2-oxo-2H-pyran-5-yl)hexadecahydro-1H-cyclopenta[a]phenanthren-3-yl)acetamide] | > 1000 | < 20 | 
C[C@]12CCC(NCCN3CCOCC3)C[C@H]1CC[C@@H]1[C@@H]2CC[C@]2(C)[C@@H](c3ccc(=O)oc3)CC[C@]12O (stereo partly drawn) [Compound C18, 5-((5R,8R,9S,10S,13R,14S,17R)-14-hydroxy-10,13-dimethyl-3-((2-morpholinoethyl)amino)hexadecahydro-1H-cyclopenta[a]phenanthren-17-yl)-2H-pyran-2-one] | > 1000 | 100 to 1000 | 
C[C@]12CCC(N3CCNC(=O)C3)C[C@H]1CC[C@@H]1[C@@H]2CC[C@]2(C)[C@@H](c3ccc(=O)oc3)CC[C@]12O (stereo partly drawn) [Compound C19, 4-((5R,8R,9S,10S,13R,14S,17R)-14-hydroxy-10,13-dimethyl-17-(2-oxo-2H-pyran-5-yl)hexadecahydro-1H-cyclopenta[a]phenanthren-3-yl)piperazin-2-one] | 100 to 1000 (≈ 213 to 2130 µM) | 20 to 100 | 
C[C@]12CCC(N3CCCC3)C[C@H]1CC[C@@H]1[C@@H]2CC[C@]2(C)[C@@H](c3ccc(=O)oc3)CC[C@]12O (stereo partly drawn) [Compound C20, 5-((5R,8R,9S,10S,13R,14S,17R)-14-hydroxy-10,13-dimethyl-3-(pyrrolidin-1-yl)hexadecahydro-1H-cyclopenta[a]phenanthren-17-yl)-2H-pyran-2-one] | > 1000 | < 20 | 
CC(C)[C@@H](N)C(=O)N(C)C1CC[C@@]2(C)[C@H](CC[C@@H]3[C@@H]2CC[C@]2(C)[C@@H](c4ccc(=O)oc4)CC[C@]32O)C1 (stereo partly drawn) [Compound C22, (2R)-2-amino-N-((5R,8R,9S,10S,13R,14S,17R)-14-hydroxy-10,13-dimethyl-17-(2-oxo-2H-pyran-5-yl)hexadecahydro-1H-cyclopenta[a]phenanthren-3-yl)-N,3-dimethylbutanamide] | > 1000 | 20 to 100 | 
C[C@]12CCC(NC(=O)N3CCNCC3)C[C@H]1CC[C@@H]1[C@@H]2CC[C@]2(C)[C@@H](C3=CC(=O)OC3)CC[C@]12O (stereo partly drawn) [Compound C24, N-((5R,8R,9S,10S,13R,14S,17R)-14-hydroxy-10,13-dimethyl-17-(5-oxo-2,5-dihydrofuran-3-yl)hexadecahydro-1H-cyclopenta[a]phenanthren-3-yl)piperazine-1-carboxamide] |  | 20 to 100 | > 1000
C[C@@H](N)C(=O)N[C@H]1CC[C@@]2(C)[C@H](CC[C@@H]3[C@@H]2CC[C@]2(C)[C@@H](c4ccc(=O)oc4)CC[C@]32O)C1 [Compound C26, (R)-2-amino-N-((3S,5R,8R,9S,10S,13R,14S,17R)-14-hydroxy-10,13-dimethyl-17-(2-oxo-2H-pyran-5-yl)hexadecahydro-1H-cyclopenta[a]phenanthren-3-yl)propanamide] | > 1000 | < 20 | 
C[C@]12CCC(NCCN3CCCC3)C[C@H]1CC[C@@H]1[C@@H]2CC[C@]2(C)[C@@H](c3ccc(=O)oc3)CC[C@]12O (stereo partly drawn) [Compound C27, 5-((5R,8R,9S,10S,13R,14S,17R)-14-hydroxy-10,13-dimethyl-3-((2-(pyrrolidin-1-yl)ethyl)amino)hexadecahydro-1H-cyclopenta[a]phenanthren-17-yl)-2H-pyran-2-one] | > 1000 | < 20 | 
C[C@]12CCC(N3CCOCC3)C[C@H]1CC[C@@H]1[C@@H]2CC[C@]2(C)[C@@H](c3ccc(=O)oc3)CC[C@]12O (stereo partly drawn) [Compound C28, 5-((5R,8R,9S,10S,13R,14S,17R)-14-hydroxy-10,13-dimethyl-3-morpholinohexadecahydro-1H-cyclopenta[a]phenanthren-17-yl)-2H-pyran-2-one] | > 1000 | 100 to 1000 | 
C[C@]12CCC(NC(=O)N3CCOCC3)C[C@@]1(O)CC[C@@H]1[C@@H]2CC[C@]2(C)[C@@H](c3ccc(=O)oc3)CC[C@]12O (stereo partly drawn) [Compound C30, N-((5S,8R,9S,10R,13R,14S,17R)-5,14-dihydroxy-10,13-dimethyl-17-(2-oxo-2H-pyran-5-yl)hexadecahydro-1H-cyclopenta[a]phenanthren-3-yl)morpholine-4-carboxamide] | 100 to 1000 (≈ 194 to 1940 µM) | 20 to 100 | 
CN(CCO)C1CC[C@@]2(C)[C@H](CC[C@@H]3[C@@H]2CC[C@]2(C)[C@@H](c4ccc(=O)oc4)CC[C@]32O)C1 (stereo partly drawn) [Compound C32, 5-((5R,8R,9S,10S,13R,14S,17R)-14-hydroxy-3-((2-hydroxyethyl)(methyl)amino)-10,13-dimethylhexadecahydro-1H-cyclopenta[a]phenanthren-17-yl)-2H-pyran-2-one] | < 100 | 100 to 1000 | 
